Data taken from US20220160652A1, “USE OF VITAMIN K IN COMBINATION WITH ANTICOAGULANTS” (KAYDENCE PHARMA AS, priority 2019, published 2022).
“Also recorded” adds a separate entry of the source.

Tests used:
[1] = tested on: VSMCs; assay: Hypoxia (CoCl2) induced oxidative stress in VSMCs (DCFDA); type: cell-based
Experimental: This study was performed to determine whether intracellular oxidative stress in VSCMs is derived from mitochondrial dysfunction. To perform this study, VSMCs were incubated with cobalt chloride, a known stabilizer of HIF1a. Cobalt chloride binding to HIF1a prevents the degradation of HIF1a and thus results in a cellular hypoxia state. HIF1a has been implicated in cancer biology as well as a number of other pathophysiologies, specifically in areas of vascularization and angiogenesis, energy metabolism, cell survival, and tumor invasion. Under normal circumstances, after injury, HIF1a is degraded by the enzyme prolyl hydroxylase (PHD). The continued up-regulation of HIF1 a (mimicked by cobalt chloride) promotes tumor growth and metastasis through its role in initiating angiogenesis and regulating cellular metabolism to overcome hypoxia. Hypoxia promotes apoptosis in both normal and tumor cells. Additionally, hypoxia generates significant intracellular oxidative stress.
To perform the study, VSMCs (10,000 cells/well) were plated in a 96-well plate and left to adhere overnight. Next, the medium was changed to a medium supplemented with 50 μM CoCl2 for 19 hours. The next day, cells were washed and incubated for 1 hour with 20 μM DCFDA in the presence of a vehicle (solvent for CoCl2 and vitamin K2 (MK-7)/UQ10), 10 μM vitamin K2 (MK-7), or 10 μM UQ10 in medium. The medium was then changed to a medium supplemented with vehicle, vitamin K2 (MK-7)/UQ10, or CoCl2, and fluorescent was measured for 6 hours. Fluorescence intensity was normalized for cell count.

[2] = tested on: transgenic Ren-2 rats [TGR(mREN-2)27]; assay: T-TAS thrombus formation in whole blood of treated TGR (Ren-2) rats; type: in vivo, rat
Experimental: This experiment was conducted in order to evaluate the effects of vitamin K2 (MK-7) on the anticoagulant activity of the new oral anticoagulants (NOAC) rivaroxaban and dabigatran using the T-TAS Total Thrombus-formation Analysis System. The T-TAS Total Thrombus-formation Analysis System is a microchip-based flow chamber system capable of evaluating whole-blood thrombogenicity. It is a useful tool in monitoring the efficacy of anticoagulants on thrombus formation and predicting the risk of bleeding complications. […] Four days before the start of the treatment, the first part of animals' body weight and food intake was measured in selected representative three cages (rats n=9) to calculate the appropriate amount of tested compounds required for addition to the diet to obtain the dosing indicated in Table 1. […] The body mass of the rats was measured at the beginning and at the end of treatment. At the beginning and at the end of treatment, the food intake per day was measured in representative group of animals to monitor the daily dosing of tested compounds (per kg of body mass). The thrombus formation in vitro was measured in whole blood using a microchip-based flow chamber system according to manufacturers' protocol (Total Thrombus-formation Analyser System, T-TAS; Fujimori Kogyo Co., Ltd., Tokyo, Japan). […]

[3] = tested on: Sprague-Dawley rats; assay: T-TAS thrombus formation in whole blood of treated Sprague-Dawley rats; type: in vivo, rat
Experimental: This experiment was conducted in order to evaluate the effects of vitamin K2 (MK-7) on the anticoagulant activity of the new oral anticoagulants (NOAC) rivaroxaban and dabigatran using the T-TAS Total Thrombus-formation Analysis System. The T-TAS Total Thrombus-formation Analysis System is a microchip-based flow chamber system capable of evaluating whole-blood thrombogenicity. It is a useful tool in monitoring the efficacy of anticoagulants on thrombus formation and predicting the risk of bleeding complications. To perform the study, 45 wild-type male Sprague-Dawley and 45 transgenic male Ren-2 rats [TGR(mREN-2)27] at the age of 10-11 weeks at the beginning of the treatment period were purchased from animal facility IKEM-CEM Institute of Clinical and Experimental Medicine (Prague, Czech Republic). All animals in the experiment were housed in individually ventilated cages (2-3 rats per cage) and kept in the animal rooms of JCET at a relative humidity of 55±10%, a temperature of 22±2 ° C., and a light cycle of 7 AM to 7 PM. The rats had free access to food and water. After delivery, animals were randomly divided into 10 experimental groups (5 or 10 rats per group), as indicated below in Table 1. Four days before the start of the treatment, the first part of animals' body weight and food intake was measured in selected representative three cages (rats n=9) to calculate the appropriate amount of tested compounds required for addition to the diet to obtain the dosing indicated in Table 1. It was estimated that food intake was approximately 30 g of chow per rat per day. […] The body mass of the rats was measured at the beginning and at the end of treatment. At the beginning and at the end of treatment, the food intake per day was measured in representative group of animals to monitor the daily dosing of tested compounds (per kg of body mass). The thrombus formation in vitro was measured in whole blood using a microchip-based flow chamber system according to manufacturers' protocol (Total Thrombus-formation Analyser System, T-TAS; Fujimori Kogyo Co., Ltd., Tokyo, Japan). […]

[4] = tested on: VSMCs; assay: ATP increase, 48 h incubation with CoCl2 comparison (luminescence); type: cell-based; details: 10 μM, vs CoCl2 100 μM
Experimental: (§1) This study was performed to further investigate the origin of ATP production that is influenced by vitamin K2 (MK-7). To perform this study, VSCMs (5000 cells/well) were plated in 96-well plates and left to adhere overnight. Next, cells were incubated for 48 hours with either vehicle, CoCl2 (100 μM), vitamin K2 (MK-7) (10 μM), or UQ10 (10 μM). Hoechst was added to correct for cell number (1 μg/mL). Next, ATP was measured using mammalian lysis buffer for 5 minutes, after which 50 μL ATP substrate solution was added to the wells and incubated for 10 minutes in a dark environment. Finally, medium was transferred to a white plate to measure luminescence.

[5] = tested on: VSMCs; assay: ATP increase, 24 h incubation (luminescence); type: cell-based; details: 10 μM, p=0.014 for MK-7
Experimental: This study was performed to determine if vitamin K2 (MK-7) affects ATP generation. ATP is generated via glycolysis in the cytoplasm and via both the Krebs-cycle and oxidative phosphorylation in the mitochondria. ATP generation via glycolysis delivers only 2 ATP, whereas ATP generation in the mitochondria generates some 32 ATP.
as §1, with “To” for “This study was performed to further investigate the origin of ATP production that is influenced by vitamin K2 (MK-7). To”, “24” for “48”, “vehicle,” for “vehicle, CoCl2 (100 μM),”, “minutes” for “minutes,”, “Finally, the” for “Finally,”, “luminescence” for “luminescence.”

[6] = tested on: VSMCs; assay: Warfarin-induced oxidative stress in VSMCs, warfarin concentration series (DCFDA); type: cell-based; details: warfarin 10 to 100 μM, 6 hours
Experimental: It is known that the level of reactive oxygen species in cells can be measured by measuring the conversion of 2′,7′—dichlorofluorescein diacetate (DCFDA) to the fluorescent dye 2′,7′-dichlorofluorescein (DCF). The fluorescence generated by cells subjected to DCFDA is directly proportional to the amount of oxidized DCFDA to DCF.
In this study, vitamin K metabolism was blocked using the vitamin K-antagonist warfarin. The study was conducted to investigate whether interference with vitamin K metabolism would cause intracellular oxidative stress. To perform the study, VSMCs (10,000 cells/well) were plated in 96-well plates and left to adhere overnight. Next, cells were incubated for 1 hour with 20 μM DCFDA.
The medium was then changed to a medium supplemented with different concentrations of warfarin ranging from 10 to 100 μM, and fluorescence intensity was measured over 6 hours. Fluorescence was normalized for number of cells.

[Cl][Co][Cl] [CoCl2, cobalt chloride]
oxidative stress induced by cobalt chloride ([1]; 50 μM CoCl2): induces increased oxidative stress

O=C(NC[C@H]1CN(c2ccc(N3CCOCC3=O)cc2)C(=O)O1)c1ccc(Cl)s1 [Rivaroxaban, rivaroxaban, reference compound]
thrombus formation [2]: also inhibited thrombus formation | thrombus formation [3]: inhibited thrombus formation

COC1=C(OC)C(=O)C(C/C=C(\C)CC/C=C(\C)CC/C=C(\C)CC/C=C(\C)CC/C=C(\C)CC/C=C(\C)CC/C=C(\C)CC/C=C(\C)CC/C=C(\C)CCC=C(C)C)=C(C)C1=O [UQ10, reference compound]
ATP levels compared to CoCl2 [4]: significant higher ATP levels | ATP production in VSMCs compared to the vehicle [5]: only vitamin K2 (MK-7) increased ATP production in VSMCs significantly | hypoxia induced oxidative stress (counteraction) ([1]; 10 μM, after 50 μM CoCl2 for 19 hours): This effect was not found

CC(=O)CC(c1ccccc1)c1c(O)c2ccccc2oc1=O (stereo not shown) [warfarin]
intracellular oxidative stress caused by warfarin [6]: did cause intracellular oxidative stress; also recorded: results in increased intracellular oxidative stress
